According to ChEMBL document CHEMBL5126669, “Discovery of 5,7-Dihydro-6H-pyrrolo[2,3-d]pyrimidin-6-ones as Highly Selective CDK2 Inhibitors” (ACS Med Chem Lett, 2022):

Tests used:
Homo sapiens [1] = species: Homo sapiens; experiment: Selectivity ratio of IC50 for inhibition of CDK1 in human OVCAR3 cells to IC50 for inhibition of CDK2 in human COV318 cells; assay type: cell-based
[2] = Inhibition of CDK1/cyclin B (unknown origin) in presence of ATP; parameters: species or system Homo sapiens
[3] = target: Cyclin-dependent kinase 2/cyclin E1 (Homo sapiens, UniProt P24941); experiment: Inhibition of recombinant human N-terminal GST-tagged full-length CDK2/Flag-tagged cyclinE1 expressed in baculovirus expression system using eIF4E-binding protein-1 peptide as substrate incubated for 1 hr in presence of ATP by HTRF assay
[4] = target: Cyclin-dependent kinase 1 (Homo sapiens, UniProt P06493); experiment: Inhibition of CDK1 in human OVCAR3 cells incubated for 30 mins in presence of pNPM T199 by western blot analysis; assay type: cell-based, OVCAR-3
Chain of Cyclin-dependent kinase 1 (P06493 whole entry): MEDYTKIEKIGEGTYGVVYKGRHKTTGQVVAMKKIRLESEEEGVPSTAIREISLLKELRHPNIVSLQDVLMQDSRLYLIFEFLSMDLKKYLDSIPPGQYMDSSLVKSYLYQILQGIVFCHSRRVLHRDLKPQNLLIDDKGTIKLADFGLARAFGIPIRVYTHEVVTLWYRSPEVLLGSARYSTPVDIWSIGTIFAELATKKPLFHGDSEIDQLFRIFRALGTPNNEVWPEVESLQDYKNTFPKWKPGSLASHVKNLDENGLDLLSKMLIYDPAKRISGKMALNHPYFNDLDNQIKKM

[5] = target: Cyclin-dependent kinase 2 (Homo sapiens, UniProt P24941); experiment: Inhibition of CDK2 in human COV318 cells incubated for overnight in presence of human whole blood by HTRF assay; assay type: cell-based
Homo sapiens [6] = species: Homo sapiens; experiment: Selectivity ratio of IC50 for inhibition of CDK1/cyclin B (unknown origin) to IC50 for inhibition recombinant human N-terminal GST-tagged full-length CDK2/Flag-tagged cyclinE1 expressed in baculovirus expression system
Homo sapiens [7] = species: Homo sapiens; experiment: Selectivity ratio of IC50 for inhibition of CDK6/cyclin D1 (unknown origin) to IC50 for inhibition recombinant human N-terminal GST-tagged full-length CDK2/Flag-tagged cyclinE1 expressed in baculovirus expression system
[8] = Intrinsic clearance in human liver microsomes at 1 uM measured upto 30 mins by LC/MS analysis; assay type: ADME, Microsome; conditions: read-out: CLH (converted)
Homo sapiens [9] = species: Homo sapiens; experiment: Selectivity ratio of IC50 for inhibition of CDK4/cyclin D1 (unknown origin) to IC50 for inhibition recombinant human N-terminal GST-tagged full-length CDK2/Flag-tagged cyclinE1 expressed in baculovirus expression system
Homo sapiens [10] = species: Homo sapiens; experiment: Selectivity ratio of IC50 for inhibition of CDK7 (unknown origin) to IC50 for inhibition recombinant human N-terminal GST-tagged full-length CDK2/Flag-tagged cyclinE1 expressed in baculovirus expression system; conditions: tested as the 2H-labelled form
Homo sapiens [11] = species: Homo sapiens; experiment: Selectivity ratio of IC50 for inhibition of CDK1 (unknown origin) to IC50 for inhibition recombinant human N-terminal GST-tagged full-length CDK2/Flag-tagged cyclinE1 expressed in baculovirus expression system; conditions: tested as the 2H-labelled form
Homo sapiens [12] = species: Homo sapiens; experiment: Selectivity ratio of IC50 for inhibition of CDK6 (unknown origin) to IC50 for inhibition recombinant human N-terminal GST-tagged full-length CDK2/Flag-tagged cyclinE1 expressed in baculovirus expression system; conditions: tested as the 2H-labelled form
Homo sapiens [13] = species: Homo sapiens; experiment: Selectivity ratio of IC50 for inhibition of CDK9 (unknown origin) to IC50 for inhibition recombinant human N-terminal GST-tagged full-length CDK2/Flag-tagged cyclinE1 expressed in baculovirus expression system; conditions: tested as the 2H-labelled form
Homo sapiens [14] = species: Homo sapiens; experiment: Selectivity ratio of IC50 for inhibition of CDK4 (unknown origin) to IC50 for inhibition recombinant human N-terminal GST-tagged full-length CDK2/Flag-tagged cyclinE1 expressed in baculovirus expression system; conditions: tested as the 2H-labelled form

| Structure (SMILES) | IC50 [2] | IC50 [3] | IC50 [5] | Ratio IC50 (Homo sapiens [6]) | Ratio IC50 (Homo sapiens [7]) | predicted hepatic clearance at 1 µM [8] | Ratio IC50 (Homo sapiens [9]) | further results |
| --- | --- | --- | --- | --- | --- | --- | --- | --- |
| Cn1cc(S(=O)(=O)N2CCC(Nc3ncc4c(n3)N(C3CCCC3)C(=O)C43CC3)CC2)cn1 | 1280 nM | 17 nM | – | – | – | – | – | Ratio IC50 (Homo sapiens [1]): 75 |
| CN1Cc2cnc(Nc3ccc(S(N)(=O)=O)cc3)nc2C(C)(C)C1=O | > 5000 nM | 161 nM | – | – | – | – | – | – |
| CCC1(C)C(=O)N(C2CCCC2)c2nc(NC3CCN(S(C)(=O)=O)CC3)ncc21 (stereo not given) | > 5000 nM | 557 nM | – | – | – | – | – | – |
| CS(=O)(=O)N1CCC(Nc2ncc3c(n2)N(CC(F)F)C(=O)C32CC2)CC1 | – | 875 nM | – | – | – | – | – | – |
| CS(=O)(=O)N1CCC(Nc2ncc3c(n2)N(C2CCCC2)C(=O)C32CC2)CC1 | > 5000 nM | 102 nM | – | – | – | – | – | IC50 [4]: > 5000 nM |

These reach a lower IC50 [3]. Values come first.

| IC50 [2] | IC50 [3] | IC50 [5] | Ratio IC50 (Homo sapiens [6]) | Ratio IC50 (Homo sapiens [7]) | predicted hepatic clearance at 1 µM [8] | Ratio IC50 (Homo sapiens [9]) | Structure (SMILES) | further results |
| --- | --- | --- | --- | --- | --- | --- | --- | --- |
| 540 nM | 7 nM | – | – | – | – | – | C[C@H]1CCC[C@@H]1N1C(=O)C2(CC2)c2cnc(NC3CCN(S(C)(=O)=O)CC3)nc21 (mixture of isomers) | Ratio IC50 (Homo sapiens [1]): 77 |
| 170 nM | 5 nM | – | – | – | – | – | CC1(C)Cc2cnc(Nc3ccc(S(N)(=O)=O)cc3)nc2N(C2CCCC2)C1=O | – |
| – | 0.32 nM | 44 nM | 100 | 9 | > 18.3 mL/min/kg | 8 | C[C@@H]1CCC[C@H]1N1C(=O)C2(CC2)c2cnc(Nc3ccc(S(=O)(=O)N[C@@H]4CCCN(C)C4)cc3)nc21 | – |
| – | 0.25 nM | 670 nM | 1200 | 230 | 13.3 mL/min/kg | 1000 | CNS(=O)(=O)c1ccc(Nc2ncc3c(n2)N([C@@H]2CCC[C@@H](O)C2)C(=O)C32CC2)cc1 | Ratio IC50 (Homo sapiens [10]): 17000; Ratio IC50 (Homo sapiens [11]): 1200; Ratio IC50 (Homo sapiens [12]): 230; Ratio IC50 (Homo sapiens [13]): 8200; Ratio IC50 (Homo sapiens [14]): 770 |
| – | 0.62 nM | 460 nM | 1900 | 120 | 15 mL/min/kg | 58 | CNS(=O)(=O)c1ccc(Nc2ncc3c(n2)N(c2cc(F)ccc2Cl)C(=O)C32CC2)cc1 | – |
| – | 0.33 nM | 230 nM | 890 | 48 | 18.3 mL/min/kg | 33 | CNS(=O)(=O)c1ccc(Nc2ncc3c(n2)N([C@H]2CCC[C@@H]2C)C(=O)C32CC2)cc1 (relative stereo) | – |
